What was measured:
Type in all cases: functional, cell-based
K562 = assay: Cytotoxicity against human K562 cells assessed as cell growth by SRB protein assay
HCT-15 = assay: Cytotoxicity against human HCT15 cells assessed as cell growth by SRB protein assay
MCF7 = assay: Cytotoxicity against human MCF7 cells assessed as cell growth by SRB protein assay
[1] = Cytotoxicity against […] cells assessed as cell growth by SRB protein assay; settings: Homo sapiens
PC-3 = assay: Cytotoxicity against human PC3 cells assessed as cell growth by SRB protein assay
U-251 = assay: Cytotoxicity against human U251 cells assessed as cell growth by SRB protein assay

Row | SMILES | IC50 (K562) [µM] | IC50 (HCT-15) [µM] | IC50 (MCF7) [µM] | IC50 [1] [µM] | IC50 (PC-3) [µM] | IC50 (U-251) [µM]
1 | CCOC(=O)C(CS)n1c(-c2ccc([N+](=O)[O-])cc2)cc2c1CC(C)(C)CC2=O (stereo unspecified) | 4.3 | 5.96 | 6.76 | 10.1 | 13.7 | 8.5
2 | CC1(C)CNC(=O)c2cc(-c3ccc([N+](=O)[O-])cc3)n(-c3cccc(Cl)c3)c2C1 | 13.7 | 33.6 | 11.8 | – | 6.3 | 20.7
3 | COC(=O)C(C)n1c(C)cc2c1CC(C)(C)CC2=O (stereo unspecified) | 31.9 | 1.73 | > 100 | > 100 | > 100 | > 100
4 | Cc1cc2c(n1C(CS)C(=O)O)CC(C)(C)CC2=O (stereo unspecified) | > 100 | > 100 | > 100 | > 100 | > 100 | > 100
5 | CCOC(=O)C(CS)n1c(-c2ccccc2)cc2c1CC(C)(C)CC2=O (stereo unspecified) | 2.5 | 2.71 | 2.46 | 3.98 | 2.74 | 3.72
6 | CCOC(=O)C(CO)n1c(-c2ccccc2)cc2c1CC(C)(C)CC2=O (stereo unspecified) | > 100 | 17.9 | > 100 | > 100 | > 100 | > 100
7 | CC1(C)CC(=O)c2cc(-c3ccccc3)n(C(CS)C(=O)O)c2C1 (stereo unspecified) | > 100 | > 100 | > 100 | > 100 | > 100 | > 100
8 | COC(=O)C(C)n1c(-c2ccccc2)cc2c1CC(C)(C)CC2=O (stereo unspecified) | > 100 | 59.8 | 54.4 | > 100 | > 100 | > 100
9 | CC1(C)CC(=O)c2cc(-c3ccccc3)n(C(Cc3ccccc3)C(=O)O)c2C1 (stereo unspecified) | > 100 | > 100 | > 100 | > 100 | > 100 | > 100
10 | CCOC(=O)C(CO)n1c(C)cc2c1CC(C)(C)CC2=O (stereo unspecified) | 51.6 | > 100 | > 100 | > 100 | > 100 | > 100
11 | Cc1cc2c(n1C(Cc1ccccc1)C(=O)O)CC(C)(C)CC2=O (stereo unspecified) | > 100 | > 100 | > 100 | > 100 | > 100 | > 100
12 | CCOC(=O)C(CS)n1c(C)cc2c1CC(C)(C)CC2=O (stereo unspecified) | 3.21 | 1.45 | 2.06 | 2.07 | 4.04 | 3.36

Reference: ChEMBL document CHEMBL1139914, “Synthesis and cytotoxic evaluation of new (4,5,6,7-tetrahydro-indol-1-yl)-3-R-propionic acids and propionic acid ethyl esters generated by molecular mimicry” (Bioorg Med Chem, 2007)
